Key:
[1] = Decrease in potency by HPLC of aqueous 1 mg/mL (R,R)-pyrodach-2 solutions in a variety of buffers at ambient temperature; format: physicochemical
From the text: Chem. 47, 7942 (2008)). Thus, simple dissolution of (R,R)-pyrodach-2 affords an acidic solution. […] At higher pHs, where the acid groups of (R,R)-pyrodach-2 are ionized, the solubility of (R,R)-pyrodach-2 increases. In addition, deprotonation of the acid groups in (R,R)-pyrodach-2 dramatically reduces the rate of hydrolytic degradation. […] Thus, controlling the pH of an aqueous solution in the physiological pH range, much less the accurate and reproducible preparation of aqueous (R,R)-pyrodach-2 solutions in this pH range by pH adjustment of an aqueous solution of (R,R)-pyrodach-2 with hydroxide base, is extremely difficult. […] This presents a unique challenge as the pyrophosphate ligand in (R,R)-pyrodach-2 is kinetically labile in solution and can potentially undergo reaction with anions present in many buffers. […] [table]

[2] = cited from earlier work

## O=P1(O)OP(=O)(O)[O][Pt]2([NH][C@@H]3CCCC[C@H]3[NH]2)[O]1 (stereo partly drawn) [(R,R)-pyrodach-2, (R,R)-trans-1,2-cyclohexanediamine-(dihydrogenpyrophosphato)platinum(II)]
[1]; Acetate 20 mM, pH 5.32, 7 days
  Decrease in Potency: 13.5%
[1]; Citric acid 20 mM, pH 6.51, 4 days
  Decrease in Potency: 1.9%
[1]; Citric acid 20 mM, pH 6.51, 11 days
  Decrease in Potency: 3.9%
[1]; L-arginine 20 mM, pH 7.72, 4 days
  Decrease in Potency: 4.0%
[1]; L-arginine 20 mM, pH 7.72, 11 days
  Decrease in Potency: 10%
[1]; NH4HCO3 20 mM, pH 7.68, 14 days
  Decrease in Potency: 8.0%
[1]; NH4HCO3 50 mM, pH 7.83, 14 days
  Decrease in Potency: 18.0%
[1]; NH4HCO3 100 mM, pH 7.94, 14 days
  Decrease in Potency: 47.1%
[1]; Triethanolamine 20 mM, pH 7.97, 4 days
  Decrease in Potency: 1.9%
[1]; Triethanolamine 20 mM, pH 7.97, 11 days
  Decrease in Potency: 5.7%
[2]
  pKa values of the two acid groups (first): approximately 2.6
  pKa values of the two acid groups (second): ~4.4
